Our source for the IC50 values is patent US20120165310A1, “ETHER DERIVATIVES OF BICYCLIC HETEROARYLS” (NOVARTIS AG, priority 2009, published 2012).

Usually IC50 stands for the concentration at which inhibition is half-maximal. A high value points to a need for much substance.

For the assay, the target named is T1, IGF-1R (Homo sapiens, UniProt P08069).
T1 construct: expressed in transfected cells; host or cells: Hek293 (Hek293-IGF1R)
T1 sequence (P08069 31-1367): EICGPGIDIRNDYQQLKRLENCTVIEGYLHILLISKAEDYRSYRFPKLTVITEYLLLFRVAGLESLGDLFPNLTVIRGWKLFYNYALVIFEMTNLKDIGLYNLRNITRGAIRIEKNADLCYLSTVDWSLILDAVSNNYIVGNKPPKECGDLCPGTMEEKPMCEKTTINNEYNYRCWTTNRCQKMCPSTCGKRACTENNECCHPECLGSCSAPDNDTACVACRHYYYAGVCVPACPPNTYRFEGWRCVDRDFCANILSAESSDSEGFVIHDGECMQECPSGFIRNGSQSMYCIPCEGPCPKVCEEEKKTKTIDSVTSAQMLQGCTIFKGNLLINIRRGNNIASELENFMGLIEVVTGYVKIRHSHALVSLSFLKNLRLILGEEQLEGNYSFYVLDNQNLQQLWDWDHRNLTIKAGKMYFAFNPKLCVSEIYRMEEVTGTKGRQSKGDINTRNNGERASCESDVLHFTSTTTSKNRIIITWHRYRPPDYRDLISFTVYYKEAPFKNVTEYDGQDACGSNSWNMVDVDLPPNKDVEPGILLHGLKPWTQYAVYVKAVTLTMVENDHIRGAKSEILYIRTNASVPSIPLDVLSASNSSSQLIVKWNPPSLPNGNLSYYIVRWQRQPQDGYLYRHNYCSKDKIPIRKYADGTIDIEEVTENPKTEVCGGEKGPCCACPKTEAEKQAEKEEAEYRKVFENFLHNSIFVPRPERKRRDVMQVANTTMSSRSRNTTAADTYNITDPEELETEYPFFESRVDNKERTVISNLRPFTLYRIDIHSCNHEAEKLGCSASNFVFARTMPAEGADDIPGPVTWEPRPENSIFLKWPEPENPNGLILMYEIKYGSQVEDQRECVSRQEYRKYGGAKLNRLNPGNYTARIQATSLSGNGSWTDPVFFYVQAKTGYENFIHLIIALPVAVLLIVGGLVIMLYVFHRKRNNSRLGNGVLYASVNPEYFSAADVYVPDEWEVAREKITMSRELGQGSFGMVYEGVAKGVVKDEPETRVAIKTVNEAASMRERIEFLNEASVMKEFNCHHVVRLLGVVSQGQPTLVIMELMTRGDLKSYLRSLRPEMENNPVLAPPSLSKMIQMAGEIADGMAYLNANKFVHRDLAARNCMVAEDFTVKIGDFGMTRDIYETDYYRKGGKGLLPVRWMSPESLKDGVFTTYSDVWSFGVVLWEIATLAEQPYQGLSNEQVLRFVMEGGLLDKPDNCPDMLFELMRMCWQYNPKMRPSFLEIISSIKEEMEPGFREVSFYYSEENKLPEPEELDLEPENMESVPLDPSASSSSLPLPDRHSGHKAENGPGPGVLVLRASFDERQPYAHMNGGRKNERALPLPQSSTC
Kind of assay: Cellular IGF-1R assay: capture ELISA (MSD) of receptor phosphorylation in Hek293 cells. The format is cell-based. The following applies: Hek293-IGF1R cells, 1 h pre-incubation, 10 min IGF stimulation, pIGF1R capture ELISA. Here is the method: (§1) In this assay the activity of the compounds of the invention against Insulin-like growth factor I (IGF-I) induced autophosphorylation of the IGF-IR was determined. The assay was conducted as follows: Compound-mediated inhibition of IGF1R and INSR phosphorylation in Hek293 cells transduced with the corresponding receptors was assessed in a capture ELISA format using the MSD (Meso Scale Discovery) platform. Briefly, 30,000 cells washed and diluted in starvation medium (DMEM high glucose supplemented with 0.1% BSA) were seeded in 90 μL per well into 96-well plates pre-coated with poly-D-lysine (0.1 mg/mL in PBS/O). After 24 h incubation at 37° C. and 5% CO2, dose-response effects were determined with 3-fold serial compound dilutions, starting at 10 μM. The final vehicle concentration is 0.1% DMSO in all wells. Following pre-incubation with compounds for 1 h, receptor phosphorylation was triggered by a 10 min exposure to 1.0 ng/μL IGF for Hek293-IGF1R cells, and 5.0 ng/μL insulin for Hek293-InsR cells. Cell lysis was achieved by addition of 80 μL MSD lysis buffer per aspirated well, incubation on ice for 20 min, and a freeze-thaw cycle. Target phosphorylation was then assessed by transferring volumes corresponding to approx. 6 μg Hek293-IGF1R or 0.6 μg Hek293-InsR lysates to MSD assay plates pre-coated with total-IGF1R or total-InsR Abs, respectively. […] Immune complexes were detected by a SULFO-Tag™-coupled anti-rabbit IgG antibody in the presence of 150 μL MSD read-buffer. Light emission at 620 nm triggered by application of electric current was recorded on a MSD Sectorlmager 6000. Acquired raw data (mean Ru-ECL units) were processed in an Excel analysis template. The plate blank (MSD lysis buffer) was subtracted from all data points. The effect of a particular test compound concentration on receptor phosphorylation was expressed relative to the window defined by ligand-stimulated vs unstimulated control cells (set as 100%). IC50 values [nM] were determined using 4-parametric curve-fitting (XLfit software, V4.3.2).
as §1, with “Compound-mediated” for “In this assay the activity of the compounds of the invention against Insulin-like growth factor I (IGF-I) induced autophosphorylation of the IGF-IR was determined. The assay was conducted as follows: Compound-mediated”, “cells trans-duced” for “cells transduced”, “receptors were” for “receptors was”, “concentration was” for “concentration is”, “for Hek293-IGF1 R” for “for Hek293-IGF1R”, “with total-IGF1 R” for “with total-IGF1R”
For orientation: ELISA stands for enzyme-linked immunosorbent assay.
“7-[cis-3-(2-hydroxymethyl-imidazol-1-ylmethyl)-cyclobutyl]-53-(7-oxa-bicyclo[2.2.1]hept-1-ylmethoxy)--phenyl]-7H-pyrrolo[2,3-d]pyrimidin-4-ylamine [Example 176]” gave an IC50 of 149 nM.
For “7-[cis-3-(4-methyltetrazoyl-1-ylmethyl)-cyclobutyl]-5-3-(7-oxa-bicyclo[2.2.1]hept-1-ylmethoxy)-phenyl]-7H-pyrrolo[2,3-d]pyrimidin-4-ylamine [Example 179]”, the IC50 was 345 nM. Against the preceding compound, the IC50 is about 2.3-fold higher.
For the compound “7-[cis-3-(N-methylcarboxy-amino-methyl)-cyclobutyl]-5-3-(7-oxa-bicyclo[2.2.1]hept-1-ylmethoxy)-phenyl]-7H-pyrrolo[2,3-d]pyrimidin-4-ylamine [Example 177]”, the IC50 was 138 nM.
With `Nc1ncnc2c1c(-c1cccc(OCC3CCCCO3)c1)cn2[C@H]1C[C@@H](CN2CCC2)C1` (mixture of isomers) [Example 1, (rac)-cis-7-(3-azetidin-1-ylmethyl-cyclobutyl)-5-[3-(tetrahydro-pyran-2-ylmethoxy)-phenyl]-7H-pyrrolo[2,3-d]pyrimidin-4-ylamine] the figure was 119 to 139 nM.
Turning to `Nc1ncnc2c1c(-c1cccc(OCC3CCCCO3)c1)cn2[C@H]1C[C@@H](CN2CC(O)C2)C1` (relative stereo) [Example 28, 1-(cis-3-{4-amino-5-[3-(tetrahydro-pyran-2-ylmethoxy)-phenyl]-pyrrolo[2,3-d]pyrimidin-7-yl}-cyclobutylmethyl)-azetidin-3-ol], the IC50 was 294 nM. This lies in the sub-micromolar range.
With `Nc1ncnc2c1c(-c1cccc(OCC3CCCCO3)c1)cn2[C@H]1C[C@@H](CN2CCC(F)(F)CC2)C1` (relative stereo) [Example 31, 7-[cis-3-(4,4-difluoro-piperidin-1-ylmethyl)-cyclobutyl]-5-[3-(tetrahydro-pyran-2-ylmethoxy)-phenyl]-7H-pyrrolo[2,3-d]pyrimidin-4-ylamine] the figure was 408 nM; with `Nc1ncnc2c1c(-c1cccc(OCC3CCCCO3)c1)cn2[C@H]1C[C@@H](CN2CCC(F)CC2)C1` (relative stereo) [Example 32, 7-[cis-3-(4-fluoro-piperidin-1-ylmethyl)-cyclobutyl]-5-[3-(tetrahydro-pyran-2-ylmethoxy)-phenyl]-7H-pyrrolo[2,3-d]pyrimidin-4-ylamine], 309 nM; with `Nc1ncnc2c1c(-c1cccc(OCC3CCCCO3)c1)cn2[C@H]1C[C@H](CN2CC(O)C2)C1` (relative stereo) [Example 36, 1-(trans-3-{4-amino-5-[3-(tetrahydro-pyran-2-ylmethoxy)-phenyl]pyrrolo[2,3-d]pyrimidin-7-yl}-cyclobutylmethyl)-azetidin-3-ol], 372 nM.
With `Nc1ncnc2c1c(-c1cccc(OCC3CCCCO3)c1)cn2[C@H]1C[C@H](CN2CC(F)C2)C1` (relative stereo) [Example 37, 7-[trans-3-(3-fluoro-azetidin-1-ylmethyl)-cyclobutyl]-5-[3-(tetrahydro-pyran-2-ylmethoxy)-phenyl]-7H-pyrrolo[2,3-d]pyrimidin-4-ylamine] the figure was 497 nM.
For `CC1(C)CCC(COc2cccc(-c3cn([C@H]4C[C@@H](CN5CC(O)C5)C4)c4ncnc(N)c34)c2)O1` (relative stereo) [Example 41, 1-(cis-3-{4-amino-5-[3-(5,5-dimethyl-tetrahydro-furan-2-ylmethoxy)-phenyl]-pyrrolo[2,3-d]pyrimidin-7-yl}-cyclobutylmethyl)-azetidin-3-ol], the IC50 came out at 41 nM.
With `CC1(C)CCC(COc2cccc(-c3cn([C@H]4C[C@H](CN5CC(O)C5)C4)c4ncnc(N)c34)c2)O1` (relative stereo) [Example 48, 1-(trans-3-{4-amino-5-[3-(5,5-dimethyl-tetrahydro-furan-2-ylmethoxy)-phenyl]-pyrrolo[2,3-d]pyrimidin-7-yl}-cyclobutylmethyl)-azetidin-3-ol] the figure was 26 nM.
